Earlier results as cited in US11718578B2, “Ketamine flow synthesis” (Université de Liège, priority 2017, dated 2023).

Molecular target: glutamatergic N-methyl-D-aspartate (NMDA) receptor
Details: non-competitive NMDA receptor antagonist; according to Tyler et al.

CN[C@]1(c2ccccc2Cl)CCCCC1=O [1a, (S)-2-(2-chlorophenyl)-2-(methylamino)-cyclohexanone]
IC50: 465 nM
